Here are results for one compound from publication PMC7866863, “A Cellular Assay for the Identification and Characterization of Connexin Gap Junction Modulators” (International Journal of Molecular Sciences, 2021).

The target of the experiment is T1, Cx43 (connexin 43 gap junction) (Mus musculus, UniProt P23242).
T1 construct: gene Gja1; mouse Cx43 coding region, recombinantly expressed in HeLa donor and biosensor cells
Kind of experiment: HeLa coculture cAMP-transfer GloSensor luminescence assay for Cx43 gap junctions. The format is cell-based.

T1 sequence (P23242 2-382): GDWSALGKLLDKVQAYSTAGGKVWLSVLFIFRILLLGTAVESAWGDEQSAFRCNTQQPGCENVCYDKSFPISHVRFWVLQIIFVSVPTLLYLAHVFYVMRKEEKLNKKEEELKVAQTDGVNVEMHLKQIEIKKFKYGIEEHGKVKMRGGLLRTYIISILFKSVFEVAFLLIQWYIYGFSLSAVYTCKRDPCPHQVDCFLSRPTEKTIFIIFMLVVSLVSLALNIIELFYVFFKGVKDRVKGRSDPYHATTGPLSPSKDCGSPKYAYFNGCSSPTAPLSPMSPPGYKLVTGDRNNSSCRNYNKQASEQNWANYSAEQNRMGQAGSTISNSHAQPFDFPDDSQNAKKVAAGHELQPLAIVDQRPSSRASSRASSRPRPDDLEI

For `CC1(C)[C@@H](OC(=O)CCC(=O)O)CC[C@]2(C)[C@H]3C(=O)C=C4[C@@H]5C[C@@](C)(C(=O)O)CC[C@]5(C)CC[C@@]4(C)[C@]3(C)CC[C@@H]12` [carbenoxolone], the IC50 – broadly, the concentration that gives 50% inhibition – worked out at 44.5 ± 4.8 µM.
